Source: paper PMC5826917, “A small molecule inhibitor of Nicotinamide N-methyltransferase for the treatment of metabolic disorders” (Scientific Reports, 2018)

Assays:
[1] = molecular target: Muscarinic Receptor 3 (CHRM3) (Homo sapiens, UniProt P20309); test: Selectivity panel: CHRM3; assay type: cell-based
Protocol: (§1) Supplement 41598_2018_22081_MOESM1_ESM.docx, table 2: Supplementary table 2: Selectivity profile of JBSNF-000088 (at 10 µM) vs a panel of 34 receptors, channels and enzymes. | column: E% (agonistic); I% (antagonistic or inhibitory)

in vivo [2] = settings: male, db/db (BKS.Cg- + Leprdb/ + Leprdb/OlaHsd), mouse, in vivo, JBSNF-000088 (μM)
Protocol: (§2) Samples for MNA were analyzed employing a fit-for-purpose LC-MS/MS method. PE-Sciex API-4000 triple quadrupole (PerkinElmerSciex Instruments, Boston, MA) mass spectrometer was employed for this analysis. Samples (5 µL) were injected onto Kinetex HILIC (50 × 4.6 mm, 2.6 µm; Phenomenex, Torrance, CA, USA) column connected to Shimadzu VP (Shimadzu, Japan) LC system. The gradient mobile phase mixture of 0.2% formic acid and acetonitrile was delivered at a flow rate of 0.45 ml min-1 into the mass spectrometer electrospray ionization (ESI) chamber. Quantitation was achieved by MS/MS detection in positive ion mode for MNA and internal standard (d4–MNA). Detection of the ions was performed in the multiple reaction monitoring (MRM) mode, monitoring the transition of the m/z 137 precursor ion to the m/z 92 product ion for MNA and m/z 141 precursor ion to the m/z 84 product ion for d4-MNA (internal standard).
(§3) A simple protein precipitation extraction method was followed for extraction of N-methylnicotinamide from plasma and various tissue homogenate samples. The tissue samples were homogenized with 1:3 proportions of phosphate buffer saline (PBS) and this homogenate was used for N-Methylnicotinamide determinations. To an aliquot of ~50 μL of plasma/ liver homogenate/ adipose tissue homogenate samples ~300 µl of acetonitrile containing IS (d4-MNA) solution was added, followed by vortex for ~3 minutes and centrifuged for 10 minutes at 14,000 rpm. The supernatant was separated and transferred to pre-labeled HPLC vials and analyzed by LC-MS/MS system.
(§4) Samples for methylated JBSNF-000088 were analyzed employing a fit-for-purpose LC-MS/MS method. PE-Sciex API-5500 triple quadrupole (PerkinElmerSciex Instruments, Boston, MA) mass spectrometer was employed for this analysis. Samples (2 µL) were injected onto Atlantis dC18 (50 × 4.6 mm, 3 µm; Waters, Milford, MA, USA) column connected to Shimadzu VP (Shimadzu, Japan) LC system. The gradient mobile phase mixture of 0.2% formic acid and acetonitrile was delivered at a flow rate of 0.9 mL min-1 into the mass spectrometer electrospray ionization (ESI) chamber. Quantitation was achieved by MS/MS detection in positive ion mode for methylated JBSNF-000088 and internal standard (Tolbutamide). Detection of the ions was performed in the multiple reaction monitoring (MRM) mode, monitoring the transition of the m/z 168 precursor ion to the m/z 128.8, product ion for MNA and m/z 271 precursor ion to the m/z 91 product ion for tolbutamide (internal standard).
(§5) Male C57BL6/N (Vivo Bio Tech Ltd, India), ob/ob (B6.V-Lepob/OlaHsd) and its lean control (Envigo laboratories Inc, USA) and db/db (BKS.Cg- + Leprdb/ + Leprdb/OlaHsd) and its lean control (Envigo laboratories Inc, USA) were housed in individually ventilated cages (n = 5/cage) under standard laboratory conditions. The study room environment was maintained at a temperature of 21–24 °C and, relative humidity at 40–70%. The animal rooms were maintained under 12 h light and dark cycle. Animals were provided with ad libitum access to water and food (except where noted otherwise, e.g. during fasting prior for glucose tolerance tests, fasting prior to terminal sacrifice). Animals were acclimatized for 1 week before initiation of studies. For Diet induced obesity (DIO) mice study, C57BL6/N mice were maintained on rodents chow diet (Teklad; Harlan) or HFD (60% Kcal; Research diet) for 14 weeks before study initiation and throughout the study period. ob/ob and db/db mice and their lean controls were maintained on rodents chow diet (Teklad; Harlan). All the experiments were approved by Institutional Animal Ethics Committee (IAEC) of Jubilant Biosys Ltd, India.
(§6) Lean control + Vehicle and HFD + Vehicle Control groups (G1 and G2) mice were administered with vehicle.

db/db mice = test: Chronic efficacy study in db/db mice; settings: db/db mice
Protocol: as §2, §3, §4, §5, §6

[3] = system: endogenous NNMT activity in U2OS cells; test: Cell based U2OS assay (MNA levels by LC-MS/MS); settings: Homo sapiens, 24 h treatment
Protocol: PE-Sciex API-4000 triple quadrupole (PerkinElmerSciex Instruments, Boston, MA) mass spectrometer was employed for this analysis. […] Detection of the ions was performed in the multiple reaction monitoring (MRM) mode, monitoring the transition of the m/z 137 precursor ion to the m/z 92 product ion for MNA and m/z 141 precursor ion to the m/z 84 product ion for d4-MNA (internal standard).
The supernatant was separated and transferred to pre-labeled HPLC vials and analyzed by LC-MS/MS system.

[4] = 0.5 h
[5] = molecular target: cGMP-inhibited 3,5-cyclic phosphodiesterase A (PDEA3) (Homo sapiens, UniProt Q14432); test: Selectivity panel: PDEA3; assay type: biochemical; settings: read-out: I% (antagonistic or inhibitory), PDEA3
[6] = molecular target: Muscarinic Receptor 2 (CHRM2) (Homo sapiens, UniProt P08172); test: Selectivity panel: CHRM2; assay type: cell-based
Protocol: as §1

in vivo [7] = settings: C57BL/6, mouse
[8] = molecular target: Histamine Receptor 2 (H2) (Homo sapiens, UniProt P25021); test: Selectivity panel: H2; assay type: cell-based
Histamine Receptor 2 (H2), sequence (P25021 whole entry): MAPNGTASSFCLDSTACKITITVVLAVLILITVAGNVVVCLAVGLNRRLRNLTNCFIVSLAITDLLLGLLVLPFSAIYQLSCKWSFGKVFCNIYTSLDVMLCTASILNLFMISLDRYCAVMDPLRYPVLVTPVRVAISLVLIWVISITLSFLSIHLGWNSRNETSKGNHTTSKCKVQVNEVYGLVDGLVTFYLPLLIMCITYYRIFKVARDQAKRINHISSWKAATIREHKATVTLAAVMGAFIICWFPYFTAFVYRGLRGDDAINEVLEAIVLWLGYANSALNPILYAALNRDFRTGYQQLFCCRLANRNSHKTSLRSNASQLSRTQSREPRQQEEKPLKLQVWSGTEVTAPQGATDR

Muscarinic Receptor 2 (CHRM2), sequence (P08172 whole entry): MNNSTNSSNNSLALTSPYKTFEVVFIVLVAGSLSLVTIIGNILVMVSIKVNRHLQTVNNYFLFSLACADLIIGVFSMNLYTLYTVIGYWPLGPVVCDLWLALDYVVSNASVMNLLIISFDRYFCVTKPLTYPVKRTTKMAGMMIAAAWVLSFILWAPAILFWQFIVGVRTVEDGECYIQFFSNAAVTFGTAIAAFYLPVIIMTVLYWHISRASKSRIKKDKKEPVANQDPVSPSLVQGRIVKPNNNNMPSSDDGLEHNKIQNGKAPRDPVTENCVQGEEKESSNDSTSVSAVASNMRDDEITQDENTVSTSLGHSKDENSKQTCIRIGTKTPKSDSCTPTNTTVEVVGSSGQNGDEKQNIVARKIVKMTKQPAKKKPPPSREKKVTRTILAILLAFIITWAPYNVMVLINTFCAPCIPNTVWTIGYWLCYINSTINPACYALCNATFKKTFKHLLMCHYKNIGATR
Muscarinic Receptor 3 (CHRM3), sequence (P20309 whole entry): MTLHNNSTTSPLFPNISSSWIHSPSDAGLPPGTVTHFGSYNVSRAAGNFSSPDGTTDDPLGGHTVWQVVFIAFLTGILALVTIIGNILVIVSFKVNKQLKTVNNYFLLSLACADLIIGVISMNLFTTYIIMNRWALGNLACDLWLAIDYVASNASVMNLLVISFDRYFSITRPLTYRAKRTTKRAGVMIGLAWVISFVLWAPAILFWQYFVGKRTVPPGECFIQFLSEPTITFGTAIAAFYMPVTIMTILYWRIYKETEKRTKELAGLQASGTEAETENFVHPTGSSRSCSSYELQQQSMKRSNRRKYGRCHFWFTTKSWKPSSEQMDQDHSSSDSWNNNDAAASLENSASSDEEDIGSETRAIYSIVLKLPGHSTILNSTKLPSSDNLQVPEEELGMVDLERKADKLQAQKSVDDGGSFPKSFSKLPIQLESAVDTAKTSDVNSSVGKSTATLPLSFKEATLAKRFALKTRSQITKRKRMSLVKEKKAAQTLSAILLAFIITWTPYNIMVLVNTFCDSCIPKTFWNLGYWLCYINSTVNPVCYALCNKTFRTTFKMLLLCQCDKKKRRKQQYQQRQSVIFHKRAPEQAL
cGMP-inhibited 3,5-cyclic phosphodiesterase A (PDEA3), sequence (Q14432 whole entry): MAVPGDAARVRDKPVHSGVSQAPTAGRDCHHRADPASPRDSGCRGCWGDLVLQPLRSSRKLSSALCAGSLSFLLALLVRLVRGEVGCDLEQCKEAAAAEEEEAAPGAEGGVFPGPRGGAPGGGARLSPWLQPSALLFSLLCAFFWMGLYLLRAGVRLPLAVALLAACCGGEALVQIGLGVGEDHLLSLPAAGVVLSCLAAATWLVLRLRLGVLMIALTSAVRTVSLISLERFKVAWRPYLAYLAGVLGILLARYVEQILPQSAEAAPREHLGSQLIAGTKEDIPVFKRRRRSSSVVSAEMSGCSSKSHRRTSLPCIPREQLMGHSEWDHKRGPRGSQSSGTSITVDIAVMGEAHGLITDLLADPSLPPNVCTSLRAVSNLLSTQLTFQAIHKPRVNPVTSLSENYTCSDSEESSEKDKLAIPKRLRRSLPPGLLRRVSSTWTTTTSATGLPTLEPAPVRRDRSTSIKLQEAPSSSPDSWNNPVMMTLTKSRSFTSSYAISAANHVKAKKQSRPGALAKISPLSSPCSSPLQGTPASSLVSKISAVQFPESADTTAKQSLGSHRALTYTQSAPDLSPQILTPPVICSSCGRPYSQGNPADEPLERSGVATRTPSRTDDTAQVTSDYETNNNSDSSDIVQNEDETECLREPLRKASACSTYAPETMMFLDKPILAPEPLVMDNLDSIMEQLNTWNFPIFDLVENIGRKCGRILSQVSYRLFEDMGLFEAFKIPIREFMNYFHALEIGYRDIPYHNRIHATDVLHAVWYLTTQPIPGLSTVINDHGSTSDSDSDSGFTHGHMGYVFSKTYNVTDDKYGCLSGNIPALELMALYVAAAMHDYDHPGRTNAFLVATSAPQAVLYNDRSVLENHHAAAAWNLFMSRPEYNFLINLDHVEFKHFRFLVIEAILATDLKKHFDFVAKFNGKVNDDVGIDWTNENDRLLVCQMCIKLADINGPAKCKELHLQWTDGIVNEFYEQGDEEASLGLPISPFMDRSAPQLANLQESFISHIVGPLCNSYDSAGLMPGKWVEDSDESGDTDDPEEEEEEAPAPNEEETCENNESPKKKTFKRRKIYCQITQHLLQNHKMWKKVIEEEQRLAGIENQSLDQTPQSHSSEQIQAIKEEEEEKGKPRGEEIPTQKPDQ

With `COc1ccc(C(N)=O)cn1` [JBSNF-000088, 6-methoxynicotinamide] as the molecule, how does the “E% (agonistic), CHRM3” value ([1]; 10 µM) read?
Its value is -1%.

What about the inhibition at 10 µM ([1]; read-out: I% (antagonistic or inhibitory), CHRM3) of the same molecule?
Its inhibition at 10 µM is 21%.

What about the concentration at 1 h (in vivo [2]; plasma) of the same molecule?
The concentration at 1 h was 275 ± 39 µM.

What about the concentration at 1 h (in vivo [2]; subcutaneous fat) of the same molecule?
The concentration at 1 h was 6.94 ± 1.52 µM.

What about the concentration at 1 h (in vivo [2]; visceral fat) of the same molecule?
The concentration at 1 h was 7.14 ± 2.18 µM.

What about the HOMA-IR (db/db mice) of the same molecule?
The HOMA-IR was “no change”.

What about the body weight gain (db/db mice; 50 mg kg^−1 bid, four weeks, vs vehicle) of the same molecule?
Its body weight gain is “gained comparable weight”.

And the “MNA levels in liver and visceral WAT and s/c fat” value (db/db mice; 30 days, p < 0.0001 vs vehicle control)?
Its value is “statistically significant reduction”.

And the fed blood glucose (db/db mice; day 21, p < 0.001 vs vehicle control)?
The fed blood glucose was “moderate but statistically significant reduction”.

And the glucose tolerance (db/db mice; day 26, not statistically significant)?
Its glucose tolerance is “trend towards improvement”.

And the “Fed insulin levels on days 7, 14 and 21 and fasting insulin levels on day 28” value (db/db mice; vs vehicle)?
The value was “not different”.

And the cumulative food intake (db/db mice; vs vehicle)?
The cumulative food intake was “comparable”.

And the “AUC blood glucose (OGTT)” value (db/db mice; vs vehicle control)?
The value was “Slightly lower”.

What about the IC50 [3] of the same molecule?
The IC50 was 1600 nM.

What about the “Metabolic stability human microsomes (% remaining)” value [4] of the same molecule?
Its value is 90%.

And the inhibition at 10 µM [5]?
The inhibition at 10 µM was -1%.

What about the “E% (agonistic), CHRM2” value ([6]; 10 µM) of the same molecule?
Its value is 13%.

What about the inhibition at 10 µM ([6]; read-out: I% (antagonistic or inhibitory), CHRM2) of the same molecule?
The inhibition at 10 µM was 3%.

And the Vd (in vivo [7])?
Its Vd is 0.69 L/kg.

What about the bioavailability (in vivo [7]) of the same molecule?
Its bioavailability is 43%.

What about the clearance (in vivo [7]) of the same molecule?
The clearance was 20.5 mL/min/kg.

And the clearance (in vivo [7]; iv)?
Its clearance is 21 mL/min/kg.

And the half-life (in vivo [7]; iv)?
The half-life was 30 min.

What about the Cmax (in vivo [7]; po, 10 mg/kg) of the same molecule?
Its Cmax is 3570 ng/mL.

And the Tmax (in vivo [7]; po, 10 mg/kg)?
Its Tmax is 30 min.

And the bioavailability (in vivo [7]; po, 10 mg/kg)?
Its bioavailability is ~40%.

What about the half-life (in vivo [7]; po, 10 mg/kg) of the same molecule?
Its half-life is 24 min.

And the “E% (agonistic), H2” value ([8]; 10 µM)?
The value was -1%.

And the inhibition at 10 µM ([8]; read-out: I% (antagonistic or inhibitory), H2)?
Its inhibition at 10 µM is 6%.
